Experimental data published in US11078496B2, “System for F-box hormone receptor regulated protein expression in mammalian cells” (ICAHN SCHOOL OF MEDICINE AT MOUNT SINAI, priority 2016, dated 2021).

Molecular target: T1, AID^47-CHK1 (A-CHK1) (UniProt P93830+Q7XVM8)
T1 construct: (encoding NP_001052659); 47-amino acid segment that corresponds to amino acids 63-109 of A. thaliana IAA17; expressed in transfected cells; host or cells: CCE mESCs (lentiviral pRAIDRS)
Experiment: Auxin-dependent depletion of A-CHK1 in mESCs (western blot)
Format: cell-based, mouse
Procedure: FIG. 5A is a western blot analysis depicting endogenous CHK1 (*) and AID^47-CHK1 (A-CHK1, **) in four selected clones and in parental non-infected mESCs. […] serves as a loading control. Experiment was repeated three times for clones #1 and #2, and a representative blot is presented. In FIG. 5B, A-CHK1 #2 mESCs were treated with ethanol (“Con”) or auxin (“IAA”) for 1 day. Cells were then treated with the indicated concentrations of aphidicolin (“Aph”). Equal concentrations of DMSO were applied to all conditions. The next day, cells were stained with crystal violet and plates were scanned. […] In FIG. 5C, mESC clones were pretreated with […] aphidicolin for 1 day and were then treated with auxin for the indicated time periods. Left panel: mitotic index was calculated as the percentage of H3^pS10-positive cells with 4N DNA content, measured by flow cytometry. Right panel: dot plots for A-CHK1 #2 mESCs treated with auxin for 0 or 45 minutes. Mitotic cells are gated. FIG. 5D show bright-field microscope images of cells treated as in FIG. 5C. Images show synchronous cell rounding, a feature of late mitotic cells, 2 hours following auxin treatment in aphidicolin-treated A-CHK1 #2 cells. FIG. 5E is a western blot analysis of cells treated as in FIG. 5C. Tyr15 phosphorylation of CDK1 (“CDKlpY^15”) was detected using a phospho-specific antibody. β-Actin serves as a loading control. […] Error bars represent standard deviation of three technical replicates. […]
Cells were lysed in RIPA-B buffer (20 mM Na2HPO4 pH 7.4, 150 mM NaCl and 1% Triton X-100) supplemented with Protease Inhibitor Cocktail (Roche) for 30 minutes on ice with occasional vortexing, followed by 30 minutes centrifugation at 13,000 relative centrifugal force at 4° C. […] Luminescence was detected with X-ray films, which were scanned, or using the Bio-Rad ChemiDoc MP System. […] Quantification of protein level was performed using the ImageJ software (Schneider et al., “NIH Image to ImageJ: 25 Years of Image Analysis,” Nat. Methods 9:671-675 2012), which is hereby incorporated by reference in its entirety). […]

T1 sequence (Q7XVM8 whole entry, the tested form may be a part): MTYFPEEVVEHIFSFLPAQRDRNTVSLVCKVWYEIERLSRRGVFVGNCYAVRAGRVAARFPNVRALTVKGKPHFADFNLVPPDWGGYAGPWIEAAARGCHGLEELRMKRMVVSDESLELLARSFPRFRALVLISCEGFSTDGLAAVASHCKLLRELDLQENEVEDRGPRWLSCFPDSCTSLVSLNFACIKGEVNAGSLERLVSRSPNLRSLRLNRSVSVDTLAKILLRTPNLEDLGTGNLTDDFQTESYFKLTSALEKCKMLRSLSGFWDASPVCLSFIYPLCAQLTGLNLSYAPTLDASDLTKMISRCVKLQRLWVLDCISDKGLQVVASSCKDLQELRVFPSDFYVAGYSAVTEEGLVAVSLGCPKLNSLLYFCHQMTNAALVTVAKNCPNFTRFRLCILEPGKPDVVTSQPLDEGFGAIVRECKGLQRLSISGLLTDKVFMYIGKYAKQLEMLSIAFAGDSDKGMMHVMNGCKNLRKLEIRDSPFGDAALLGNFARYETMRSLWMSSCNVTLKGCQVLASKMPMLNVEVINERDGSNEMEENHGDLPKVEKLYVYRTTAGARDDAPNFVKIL
T1 sequence (P93830 63-109): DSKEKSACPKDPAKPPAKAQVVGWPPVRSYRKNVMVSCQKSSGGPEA

time of auxin-dependent depletion of CHK1 (aphidicolin-treated mESCs): 20 min | time for >95% degradation of CHK1 (pRAIDRS system, auxin-dependent protein depletion): 20 to 30 min | auxin-dependent degradation of A-CHK1 (selected mESC clones, western blot): complete auxin-dependent degradation
Compound: O=C(O)Cc1c[nH]c2ccccc12 [auxin, indole-3-acetic acid]
